What was measured:
Type in all cases: cell-based, human
[1] = test system: A549; assay: TUNEL assay, A549
Description: (§1) U343 (5×10^4), U87MG (5×10^4), C33A (5×10^5), Hep3B (4×10^5), and A549 (5×10^4) cells were plated onto a chamber slide and then infected with adenovirus at an MOT of 0.2-20. Following 24 hr and 48 hr of infection, medium was removed and TUNNEL assay was carried out according to the manufacturer's instruction of ApopTag kit (Intergen, Purchase, N.Y.). For color development, cells were incubated with peroxidase-conjugated streptavidin and then diaminobenzidine (DAKO, Carpinteria, Calif.). At the time that color of cells became brown, cells were counterstained with 0.5% methyl green for 10 min and observed under microscope in more than 4 selected fields. The ratio of stained cells to total cells was calculated.

[2] = test system: C33A cells; assay: Flow cytometry, Annexin-V and PI dual staining, C33A
Description: To examine apoptosis induced by relaxin, human tumor cell lines, U343, U87MG, C33A, Hep3B and A549, were introduced to 25 T culture flasks and 24 hr later, infected with Ad-ΔE1B or Ad-ΔE1B-RLX adenovirus at an MOT of 0.5-5. Cells were treated with 0.1-1 μM CPT-11 […] as a positive control and treated with PBS as a negative control. After 48 hr, 72 hr and 96 hr of infection, the infected cells were collected and fixed in 70% ethanol at 4° C. for 24 hr. Following the fixation, the cells were incubated with a mixture of PI (propidium iodide, […]) and RNase for 15 min and the analysis by flow cytometry was performed. In addition, to examine early apoptosis induced by relaxin, several human tumor cell lines were infected with Ad-ΔE1B or Ad-ΔE1B-RLX adenovirus as described above. The infected cells were collected and then processed for Annexin V/PI dual staining according to manufacturer's instruction in the ApoAlert V-FITC apoptosis kit (Clontech, Palo Alto, Calif.), followed by flow cytometric analysis.

[3] = test system: U87MG; assay: TUNEL assay, U87MG
Description: as §1

[4] = test system: U343; assay: TUNEL assay, U343
Description: as §1

[5] = test system: Hep3B; assay: TUNEL assay, Hep3B
Description: as §1

[6] = test system: C33A; assay: TUNEL assay, C33A
Description: as §1

`CC[C@@]1(O)C(=O)OCc2c1cc1n(c2=O)Cc2cc3ccccc3nc2-1` [CPT, camptothecin] was tested, and the “Proportion of apoptotic cells (%)” value [1] was 37.5 ± 5.35%, the “apoptotic rate (Annexin-V+/PI−)” value [2] was 57.10% and the “Proportion of apoptotic cells (%)” value [3] was 83.0 ± 29.29%. The “Proportion of apoptotic cells (%)” value [4] was 53.5 ± 7.45%, the “Proportion of apoptotic cells (%)” value [5] was 71.2 ± 15.73% and the “Proportion of apoptotic cells (%)” value [6] was 60.1 ± 25.41%.
